Measurements reported in patent US8952024B2, “Herbicidal pyrimidone derivatives” (E I du Pont de Nemours and Company, priority 2009, dated 2015).

What was measured:
Assay type in all cases: in vivo
[1] = test system: downy bromegrass (Bromus tectorum); experiment: Test B pre-/postemergence plant response; conditions: for Plant response rating, Bromegrass, Downy: Postemergence
Method in brief: (§1)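 Visual injury, 0–100 scale (100 = complete control), rated against controls after 13 to 15 days in greenhouse. Pre-emergence: seeds in loam/sand soil, treated at planting. Post-emergence: 1- to 4-leaf plants (2 to 18 cm) in peat/vermiculite medium. Compounds formulated in non-phytotoxic solvent with surfactant.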

[2] = test system: yellow nutsedge (Cyperus esculentus); experiment: Test B pre-/postemergence plant response; conditions: for Plant response rating, Nutsedge, Yellow: Postemergence
Method in brief: as §1

[3] = test system: wheat (Triticum aestivum); experiment: Test B pre-/postemergence plant response; conditions: for Plant response rating, Wheat: Postemergence
Method in brief: as §1

[4] = test system: morningglory (Ipomoea coccinea); experiment: Test B pre-/postemergence plant response; conditions: for Plant response rating, Morningglory: Postemergence
Method in brief: as §1

[5] = test system: large crabgrass (Digitaria sanguinalis); experiment: Test B pre-/postemergence plant response; conditions: for Plant response rating, Crabgrass, Large: Postemergence
Method in brief: as §1

[6] = test system: woolly cupgrass (Eriochloa villosa); experiment: Test B pre-/postemergence plant response; conditions: for Plant response rating, Cupgrass, Woolly: Postemergence
Method in brief: as §1

[7] = test system: Italian ryegrass (Lolium multiflorum); experiment: Test B pre-/postemergence plant response; conditions: for Plant response rating, Ryegrass, Italian: Postemergence
Method in brief: as §1

[8] = test system: blackgrass (Alopecurus myosuroides); experiment: Test B pre-/postemergence plant response; conditions: for Plant response rating, Blackgrass: Postemergence
Method in brief: as §1

[9] = test system: Surinam grass (Brachiaria decumbens); experiment: Test B pre-/postemergence plant response; conditions: for Plant response rating, Surinam Grass: Postemergence
Method in brief: as §1

[10] = test system: velvetleaf (Abutilon theophrasti); experiment: Test B pre-/postemergence plant response; conditions: for Plant response rating, Velvetleaf: Postemergence
Method in brief: as §1

[11] = test system: goosegrass (Eleusine indica); experiment: Test B pre-/postemergence plant response; conditions: for Plant response rating, Goosegrass: Postemergence
Method in brief: as §1

[12] = test system: barnyardgrass (Echinochloa crus-galli); experiment: Test A pre-/postemergence plant response
Method in brief: (§2)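 Greenhouse trial, ~10 days. Soil (loam/sand) sprayed preemergence after seeding; emerged plants (1–2 leaf, 2–10 cm) sprayed postemergence in parallel. Response = visual injury vs untreated control, 0–100.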

[13] = test system: pigweed (Amaranthus retroflexus); experiment: Test A pre-/postemergence plant response
Method in brief: as §2

[14] = 62 g ai/ha, postemergence, 0 is no effect, 100 is complete control, 13 to 15 days
[15] = 31 g ai/ha, 0 to 100 scale (0 no effect, 100 complete control)
[16] = 125 g ai/ha, scale 0 to 100 (0 no effect, 100 complete control)
[17] = 250 g ai/ha, scale 0 to 100 (0 no effect, 100 complete control), 13 to 15 days
[18] = Postemergence, 125 g ai/ha, 0 to 100 scale where 0 is no effect and 100 is complete control
[19] = Postemergence, 500 g ai/ha, 0 to 100 scale, 0 = no effect, 100 = complete control, approx. ten days
[20] = Preemergence, 125 g ai/ha, 0 to 100 scale, 0 = no effect, 100 = complete control
[21] = Preemergence, 500 g ai/ha, visual injury, 0 to 100 scale (0 no effect, 100 complete control), approx. ten days

## CCCn1c(-c2cccc(F)c2)ncc(C(=O)C2=C(O)CCCC2=O)c1=O [Compound 127]
[1]; [14]
  Bromegrass, Downy plant response rating (0 to 100 scale): 10
[1]; [15]
  Plant response rating, Bromegrass, Downy: 5
[1]; [16]
  Plant response rating, Bromegrass, Downy: 20
[1]; [17]
  Plant response rating, Bromegrass, Downy: 40
[2]; [14]
  Nutsedge, Yellow plant response rating (0 to 100 scale): 70
[2]; [15]
  Plant response rating, Nutsedge, Yellow: 65
[2]; [16]
  Plant response rating, Nutsedge, Yellow: 75
[2]; [17]
  Plant response rating, Nutsedge, Yellow: 80
[3]; [14]
  Wheat plant response rating (0 to 100 scale): 10
[3]; [15]
  Plant response rating, Wheat: 5
[3]; [16]
  Plant response rating, Wheat: 25
[3]; [17]
  Plant response rating, Wheat: 40
[4]; [14]
  Morningglory plant response rating (0 to 100 scale): 80
[4]; [15]
  Plant response rating, Morningglory: 65
[4]; [16]
  Plant response rating, Morningglory: 90
[4]; [17]
  Plant response rating, Morningglory: 98
[5]; [14]
  Crabgrass, Large plant response rating (0 to 100 scale): 85
[5]; [15]
  Plant response rating, Crabgrass, Large: 80
[5]; [16]
  Plant response rating, Crabgrass, Large: 90
[5]; [17]
  Plant response rating, Crabgrass, Large: 95
[6]; [14]
  Cupgrass, Woolly plant response rating (0 to 100 scale): 75
[6]; [15]
  Plant response rating, Cupgrass, Woolly: 75
[6]; [16]
  Plant response rating, Cupgrass, Woolly: 85
[6]; [17]
  Plant response rating, Cupgrass, Woolly: 85
[7]; [14]
  Ryegrass, Italian plant response rating (0 to 100 scale): 5
[7]; [15]
  Plant response rating, Ryegrass, Italian: 0
[7]; [16]
  Plant response rating, Ryegrass, Italian: 5
[7]; [17]
  Plant response rating, Ryegrass, Italian: 30
[8]; [14]
  Blackgrass plant response rating (0 to 100 scale): 20
[8]; [15]
  Plant response rating, Blackgrass: 5
[8]; [16]
  Plant response rating, Blackgrass: 25
[8]; [17]
  Plant response rating, Blackgrass: 40
[9]; [14]
  Surinam Grass plant response rating (0 to 100 scale): 75
[9]; [15]
  Plant response rating, Surinam Grass: 75
[9]; [16]
  Plant response rating, Surinam Grass: 85
[9]; [17]
  Plant response rating, Surinam Grass: 90
[10]; [14]
  Velvetleaf plant response rating (0 to 100 scale): 95
[10]; [15]
  Plant response rating, Velvetleaf: 90
[10]; [16]
  Plant response rating, Velvetleaf: 100
[10]; [17]
  Plant response rating, Velvetleaf: 100
[11]; [14]
  Goosegrass plant response rating (0 to 100 scale): 75
[11]; [15]
  Plant response rating, Goosegrass: 65
[11]; [16]
  Plant response rating, Goosegrass: 75
[11]; [17]
  Plant response rating, Goosegrass: 85
[12]; [18]
  Plant response rating, Barnyardgrass: 80
[12]; [19]
  Plant response rating, Barnyardgrass: 90
[12]; [20]
  Plant response rating, Barnyardgrass: 40
[12]; [21]
  Plant response rating, Barnyardgrass: 100
[13]; [18]
  Plant response rating, Pigweed: 90
[13]; [19]
  Plant response rating, Pigweed: 100
[13]; [20]
  Plant response rating, Pigweed: 100
[13]; [21]
  Plant response rating, Pigweed: 100
